From patent publication US20240368204A1, “SMALL MOLECULAR CD73 ANTAGONIST AND USE THEREOF” (XIZANG HAISCO PHARMACEUTICAL CO., LTD., priority 2021, published 2024) come the findings set out here.

Sequence of Human recombinant protein CD73 (P21589 27-574): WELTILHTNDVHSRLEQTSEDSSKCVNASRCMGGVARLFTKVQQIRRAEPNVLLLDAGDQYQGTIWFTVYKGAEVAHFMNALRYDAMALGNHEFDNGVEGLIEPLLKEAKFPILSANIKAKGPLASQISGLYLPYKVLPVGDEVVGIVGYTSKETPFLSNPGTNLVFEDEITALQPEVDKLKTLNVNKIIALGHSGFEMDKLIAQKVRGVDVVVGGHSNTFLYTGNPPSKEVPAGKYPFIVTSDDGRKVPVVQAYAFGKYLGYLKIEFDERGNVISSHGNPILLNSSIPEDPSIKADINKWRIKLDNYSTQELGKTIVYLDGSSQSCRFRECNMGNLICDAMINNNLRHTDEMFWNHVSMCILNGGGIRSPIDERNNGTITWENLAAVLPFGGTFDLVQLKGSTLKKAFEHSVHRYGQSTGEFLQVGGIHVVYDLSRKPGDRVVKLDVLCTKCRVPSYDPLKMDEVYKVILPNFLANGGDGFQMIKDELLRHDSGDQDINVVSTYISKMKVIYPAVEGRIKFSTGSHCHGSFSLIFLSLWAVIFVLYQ

The first experiment has as its target Human recombinant protein CD73 (Homo sapiens (Human), UniProt P21589). The experiment can be described thus: CD73 enzyme activity in vitro (Malachite Green, AMP substrate). It counts as biochemical. As to conditions: recombinant CD73, 100 μM AMP substrate solution, absorbance at 620 nm. How it is done: 1. Test Method for CD73 Enzyme Activity In Vitro
Human recombinant protein CD73 (Acro, Cat. No. CD3-H52H7) was prepared into a 0.04 ng/μL protein solution, and substrate AMP (Sigma, Cat. No. A1752-1G) was prepared into a 100 μM substrate solution. 5 μL of compounds at different concentrations were added into a 384-well white transparent bottom plate, 5 μL of 0.04 ng/μL recombinant CD73 enzyme solution was added, and the mixture was incubated at room temperature for 15 minutes. 10 μL of 100 μM substrate solution was added, the mixture was incubated at 37° C. for 40 minutes, 5 μL of Malachite Green Reagent A (R&D, Cat. No. DY996) was added, the mixture was incubated at room temperature for 10 minutes, and finally, 5 μL of Malachite Green Reagent B was added, the mixture was incubated at room temperature for 20 minutes, and a microplate reader PHERAstar FSX instrument was used to detect the absorbance at 620 nm. IC50 values were calculated using the origin9.2 software. The calculation formula of the inhibition rate was shown in Formula 1, wherein ODsample is the readout for the compound, ODnegative is the readout for the negative control without substrate, and ODpositive is the readout for the vehicle control.
Usually IC50 stands for the midpoint of a concentration-inhibition curve. With `C[C@H](Nc1cc(Cl)nc2c1cnn2[C@@H]1O[C@H](COP(=O)(O)CP(=O)(O)O)[C@](O)(CO)[C@H]1O)c1ccccc1F` [Compound 12, (((((2R,3S,4R,5R)-5-(6-chloro-4-(((S)-1-(2-fluorophenyl)ethyl)amino)-1H-pyrazolo[3,4-b]pyridin-1-yl)-3,4-dihydroxy-3-(hydroxymethyl)tetrahydrofuran-2-yl)methoxy)(hydroxy)phosphoryl)methyl)phosphonic acid], the IC50 was determined as 0.4 nM. In the case of `CONc1nc(Cl)nc2c1cnn2[C@@H]1O[C@H](COP(=O)(O)CP(=O)(O)O)[C@@H](O)[C@H]1O` [Compound 18, (((((2R,3S,4R,5R)-5-(6-chloro-4-(methoxyamino)-1H-pyrazolo[3,4-d]pyrimidin-1-yl)-3,4-dihydroxytetrahydrofuran-2-yl)methoxy)(hydroxy)phosphoryl)methyl)phosphonic acid], the IC50 was 1.8 nM. Same read-out and setting: with `CONc1cc(Cl)nc2c1cnn2[C@@H]1O[C@H](COP(=O)(O)CP(=O)(O)O)[C@@H](O)[C@H]1O` [Compound 24, (((((2R,3S,4R,5R)-5-(6-chloro-4-(methoxyamino)-1H-pyrazolo[3,4-b]pyridin-1-yl)-3,4-dihydroxytetrahydrofuran-2-yl)methoxy)(hydroxy)phosphoryl)methyl) phosphonic acid] the figure was 5.3 nM; with `O=P(O)(O)CP(=O)(O)OC[C@H]1O[C@@H](n2ncc3c(NOC4CCCC4)nc(Cl)nc32)[C@H](O)[C@@H]1O` [Compound 25, (((((2R,3S,4R,5R)-5-(6-chloro-4-((cyclopentyloxy)amino)-1H-pyrazolo[3,4-d]pyrimidin-1-yl)-3,4-dihydroxytetrahydrofuran-2-yl)methoxy)(hydroxy)phosphoryl)methyl)phosphonic acid], 0.4 nM; with `CC(C)ONc1cc(Cl)nc2c1cnn2[C@@H]1O[C@H](COP(=O)(O)CP(=O)(O)O)[C@@H](O)[C@H]1O` [Compound 26, (((((2R,3 S,4R,5R)-5-(6-chloro-4-(isopropoxyamino)-1H-pyrazolo[3,4-b]pyridin-1-yl)-3,4-dihydroxytetrahydrofuran-2-yl)methoxy)(hydroxy)phosphoryl)methyl)phosphonic acid], 2.9 nM.

With `CC(C)ONc1nc(Cl)nc2c1cnn2[C@@H]1O[C@H](COP(=O)(O)CP(=O)(O)O)[C@@H](O)[C@H]1O` [Compound 27, (((((2R,3S,4R,5R)-5-(6-chloro-4-(isopropoxyamino)-1H-pyrazolo[3,4-d]pyrimidin-1-yl)-3,4-dihydroxytetrahydrofuran-2-yl)methoxy)(hydroxy)phosphoryl)methyl)phosphonic acid], the IC50 came out at 1.7 nM. As to `O=P(O)(O)CP(=O)(O)OC[C@H]1O[C@@H](n2ncc3c(N4C[C@H]5CCC[C@H]5C4)nc(Cl)nc32)[C@H](O)[C@@]1(O)CO` [Compound 28, (((((2R,3S,4R,5R)-5-(6-chloro-4-((3aR,6aS)-hexahydrocyclopenta[c]pyrrol-2(1H)-yl)-1H-pyrazolo[3,4-d]pyrimidin-1-yl)-3,4-dihydroxy-3-(hydroxymethyl)tetrahydrofuran-2-yl)methoxy)(hydroxy)phosphoryl)methyl)phosphonic acid], the IC50 came to 0.7 nM. Still for that read-out and setting: with `O=P(O)(O)CP(=O)(O)OC[C@H]1O[C@@H](n2ncc3c(N4C[C@H]5CCC[C@H]5C4)cc(Cl)nc32)[C@H](O)[C@@]1(O)CO` [Compound 29, (((((2R,3S,4R,5R)-5-(6-chloro-4-((3aR,6aS)-hexahydrocyclopenta[c]pyrrol-2(1H)-yl)-1H-pyrazolo[3,4-b]pyridin-1-yl)-3,4-dihydroxy-3-(hydroxymethyl)tetrahydrofuran-2-yl)methoxy)(hydroxy)phosphoryl)methyl) phosphonic acid] the figure was 2.6 nM; with `O=P(O)(O)CP(=O)(O)OC[C@H]1O[C@@H](n2ncc3c(NOCc4ccccc4)nc(Cl)nc32)[C@H](O)[C@@H]1O` [Compound 30, (((((2R,3S,4R,5R)-5-(4-((benzyloxy)amino)-6-chloro-1H-pyrazolo[3,4-d]pyrimidin-1-yl)-3,4-dihydroxytetrahydrofuran-2-yl)methoxy)(hydroxy)phosphoryl)methyl)phosphonic acid], 0.2 nM; with `O=P(O)(O)CP(=O)(O)OC[C@H]1O[C@H](n2ncc3c(N4C[C@H]5CCC[C@H]5C4)nc(Cl)nc32)[C@H](O)[C@@]1(O)CO` [Compound 31, (((((2R,3S,4R,5S)-5-(6-chloro-4-((3aR,6aS)-hexahydrocyclopenta[c]pyrrol-2(1H)-yl)-1H-pyrazolo[3,4-d]pyrimidin-1-yl)-3,4-dihydroxy-3-(hydroxymethyl)tetrahydrofuran-2-yl)methoxy)(hydroxy)phosphoryl)methyl)phosphonic acid], 0.7 nM. Same read-out and setting: the value for `O=P(O)(O)CP(=O)(O)OC[C@H]1O[C@@H](n2ncc3c(N4C[C@H]5CCC[C@H]5C4)cc(Cl)nc32)[C@H](O)[C@@]1(O)C(F)F` [Compound 32, (((((2R,3S,4R,5R)-5-(6-chloro-4-((3aR,6aS)-hexahydrocyclopenta[c]pyrrol-2(1H)-yl)-1H-pyrazolo[3,4-b]pyridin-1-yl)-3-(difluoromethyl)-3,4-dihydroxytetrahydrofuran-2-yl)methoxy)(hydroxy)phosphoryl)methyl)phosphonic acid] was 0.9 nM; that for `O=P(O)(O)CP(=O)(O)OC[C@H]1O[C@@H](n2ncc3c(N4C[C@H]5CCC[C@H]5C4)nc(Cl)nc32)[C@H](O)[C@@]1(O)C(F)F` [Compound 33, (((((2R,3S,4R,5R)-5-(6-chloro-4-((3aR,6aS)-hexahydrocyclopenta[c]pyrrol-2(1H)-yl)-1H-pyrazolo[3,4-d]pyrimidin-1-yl)-3-(difluoromethyl)-3,4-dihydroxytetrahydrofuran-2-yl)methoxy)(hydroxy)phosphoryl)methyl)phosphonic acid] was 1.2 nM; that for `C[C@@]1(O)[C@@H](COP(=O)(O)CP(=O)(O)O)O[C@@H](n2ncc3c(N4C[C@H]5CCC[C@H]5C4)nc(Cl)nc32)[C@@H]1O` [Compound 38, (((((2R,3S,4R,5R)-5-(6-chloro-4-((3aR,6aS)-hexahydrocyclopenta[c]pyrrol-2(1H)-yl)-1H-pyrazolo[3,4-d]pyrimidin-1-yl)-3,4-dihydroxy-3-methyltetrahydrofuran-2-yl)methoxy)(hydroxy)phosphoryl)methyl)phosphonic acid] was 0.3 nM. On the same count and under the same terms, the value for `C#C[C@@]1(O)[C@@H](COP(=O)(O)CP(=O)(O)O)O[C@@H](n2ncc3c(N4C[C@H]5CCC[C@H]5C4)nc(Cl)nc32)[C@@H]1O` [Compound 40, (((((2R,3S,4R,5R)-5-(6-chloro-4-((3aR,6aS)-hexahydrocyclopenta[c]pyrrol-2(1H)-yl)-1H-pyrazolo[3,4-d]pyrimidin-1-yl)-3-ethynyl-3,4-dihydroxytetrahydrofuran-2-yl)methoxy)(hydroxy)phosphoryl)methyl)phosphonic acid] was 0.06 nM.

A further experiment relates to B16F10 xenograft tumor. The experiment can be described thus: B16F10 xenograft tumor model in vivo. Further details: species or system mouse. As to conditions: 30 mg/kg, single agent. As to the method:
B16F10 Xenograft Tumor Model In Vivo
B16F10 cells were purchased from ATCC, the cell medium was DMEM+10% FBS+1% double antibody, and the cells were cultured in an incubator at 37° C. under 5% CO2. After the cells had grown to a number sufficient for inoculation, the cells were harvested. The cell-containing culture solution was transferred to a 50 mL sterile centrifuge tube, and centrifuged at 1500 rpm for 3 minutes. The centrifuge tube was taken out after centrifugation, and the supernatant was discarded. The cells were resuspended in a pre-cooled PBS and centrifuged at 1500 rpm for 3 minutes, and after centrifugation, the supernatant was discarded; the process was repeated twice. Finally, the cells were resuspended in a pre-cooled PBS. After counting, the cells were diluted to 1×10^6 cells/mL with a pre-cooled PBS. […] The second day of inoculation was recorded as Day 0, and compound 28 (the vehicle was phosphate buffer saline) was given by intragastric administration every day after randomization, and animals in both the group with the anti-PD-1 antibody (anti-PD-1; BioXcell, Cat. CD279) and the group with combined drugs were injected intraperitoneally with the anti-PD-1 antibody (twice a week). The long and short diameters of the tumors were measured with an electronic vernier caliper, and the body weight of the animals was recorded. […]
For the molecule `C[C@H](Nc1cc(Cl)nc2c1cnn2[C@@H]1O[C@H](COP(=O)(O)CP(=O)(O)O)[C@@H](O)[C@H]1O)c1ccccc1F` [AB680, reference compound], the “TGI % (day 15)” value was determined as 57.96%.

Still in this experiment, the particulars now being: 100 mg/kg, intragastric administration every day, single agent.
In the case of `O=P(O)(O)CP(=O)(O)OC[C@H]1O[C@@H](n2ncc3c(N4C[C@H]5CCC[C@H]5C4)nc(Cl)nc32)[C@H](O)[C@@]1(O)CO` [Compound 28, (((((2R,3S,4R,5R)-5-(6-chloro-4-((3aR,6aS)-hexahydrocyclopenta[c]pyrrol-2(1H)-yl)-1H-pyrazolo[3,4-d]pyrimidin-1-yl)-3,4-dihydroxy-3-(hydroxymethyl)tetrahydrofuran-2-yl)methoxy)(hydroxy)phosphoryl)methyl)phosphonic acid], the “TGI % (day 15)” value is on record as 50.12%.
